US12527739B2 (Alcon Inc., priority 2022, dated 2026)

Legend:
[1] = target: M3 muscarinic receptor (Homo sapiens, UniProt P20309); assay: Muscarinic receptor radioligand displacement binding, M3
[2] = Concentration of benzyl atropine in freshly prepared simplified formulations; assay type: physicochemical
Excerpt: Considerable efforts were made to simplify the formulation to reduce the overall amount of surfactants (Table 11).
The combination of two different species of surfactant was unexpected. […] The efficacy of this “double-buffered” vehicle was unexpected.

[3] = target: T1, M2 muscarinic receptor (Homo sapiens, UniProt P08172); assay: Muscarinic receptor radioligand displacement binding, M2
T1 sequence (P08172 1-466): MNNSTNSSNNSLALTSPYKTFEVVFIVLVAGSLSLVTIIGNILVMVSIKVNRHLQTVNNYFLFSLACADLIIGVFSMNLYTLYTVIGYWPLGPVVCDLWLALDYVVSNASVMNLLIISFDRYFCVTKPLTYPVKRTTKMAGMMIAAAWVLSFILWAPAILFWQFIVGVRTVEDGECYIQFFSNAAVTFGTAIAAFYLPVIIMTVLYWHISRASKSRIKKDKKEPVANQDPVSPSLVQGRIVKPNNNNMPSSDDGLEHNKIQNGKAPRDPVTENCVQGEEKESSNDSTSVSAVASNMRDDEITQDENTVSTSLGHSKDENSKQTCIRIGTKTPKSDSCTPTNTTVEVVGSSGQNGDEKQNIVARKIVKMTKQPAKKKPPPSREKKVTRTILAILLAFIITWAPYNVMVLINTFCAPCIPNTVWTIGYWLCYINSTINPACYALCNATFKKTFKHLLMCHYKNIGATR

[4] = 0.78% Sodium Chloride in 30 mM Acetate Buffer, pH 4.55
[5] = 3.5% PEG-400, 0.46% Sodium Chloride in 30 mM Acetate Buffer, pH 4.62
[6] = 3.5% PEG-400, 5.0% PEG-35 Castor Oil, 0.37% Sodium Chloride in 30 mM Acetate Buffer, pH 4.67
[7] = 5.0% PEG-35 Castor Oil, 0.81% Sodium Chloride in 30 mM Acetate Buffer, pH 4.57
[8] = 7.0% PEG-40 Stearate, 0.58% Sodium Chloride in 30 mM Acetate Buffer, pH 4.64
[9] = 7.0% PEG-40 Stearate, 0.65% Sodium Chloride in 5 mM Phosphate Buffer/30 mM Acetate Buffer

Chain of M3 muscarinic receptor (P20309 whole entry): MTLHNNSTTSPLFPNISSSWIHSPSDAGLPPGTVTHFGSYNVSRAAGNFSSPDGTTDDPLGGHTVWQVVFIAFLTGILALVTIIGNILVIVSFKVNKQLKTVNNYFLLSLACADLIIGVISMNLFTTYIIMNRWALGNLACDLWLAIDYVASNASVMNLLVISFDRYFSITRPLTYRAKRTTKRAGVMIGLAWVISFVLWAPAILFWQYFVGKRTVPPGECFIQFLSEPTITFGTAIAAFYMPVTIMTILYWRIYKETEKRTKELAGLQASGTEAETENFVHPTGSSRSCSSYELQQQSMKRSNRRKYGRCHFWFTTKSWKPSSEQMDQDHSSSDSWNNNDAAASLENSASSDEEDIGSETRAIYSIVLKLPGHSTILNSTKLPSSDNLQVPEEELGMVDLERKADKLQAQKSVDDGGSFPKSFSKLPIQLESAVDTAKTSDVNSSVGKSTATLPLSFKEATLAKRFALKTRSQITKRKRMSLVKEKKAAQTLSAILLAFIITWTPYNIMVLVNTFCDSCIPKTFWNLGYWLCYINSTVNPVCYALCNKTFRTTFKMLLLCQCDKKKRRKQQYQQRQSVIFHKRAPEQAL

## CN1C2CCC1CC(OC(=O)C(CO)(Cc1ccccc1)c1ccccc1)C2 (racemic) [Benzyl Atropine, benzyl atropine]
[1]
  binding to the receptor (in words): not to bind at all
[2]; [4]
  Actual Concentration: 0.92 mg/g
  Final Osmolality: 263.5 mOsm/kg
  Final pH: 7.2
[2]; [5]
  Actual Concentration: 1.79 mg/g
  Final Osmolality: 287 mOsm/kg
  Final pH: 7.1
[2]; [6]
  Actual Concentration: 3.95 mg/g
  Final Osmolality: 293 mOsm/kg
  Final pH: 7.4
[2]; [7]
  Actual Concentration: 3.02 mg/g
  Final Osmolality: 306.5 mOsm/kg
  Final pH: 7.5
[2]; [8]
  Actual Concentration: 4.62 mg/g
  Final Osmolality: 264.5 mOsm/kg
  Final pH: 7.4
[2]; [9]
  Actual Concentration: 5.32 mg/g
  Final Osmolality: 291 mOsm/kg
  Final pH: 6.4
[2]; in the presence of 3.5% PEG-400, 5% PEG-35 castor oil, and 0.37% NaCl
  highest achievable concentration that did not re-precipitate: 3.9 mg/g
[3]
  binding to the receptor (in words): not to bind at all
